Tests used:
HTT mRNA = assay: Splicing RT-qPCR assay, HTT canonical (CJ) and alternative (AJ) junction mRNA; format: cell-based; conditions: Homo sapiens, A673 or K562 cells, 24 hours; for IC50: decrease in canonical junction mRNA; for AC50: increase in alternative junction mRNA
Method in brief: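 A673 or K562 cells were treated 24 h at 37 °C with compounds in an 11-point 3-fold dilution series (top final 10 uM, DMSO ≤0.25%). Lysates were analysed by one-step RT-qPCR for canonical (CJ) and alternative-exon (AJ) junction isoforms, normalized to GAPDH, GUSB or PPIA.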

Target C mRNA = assay: Gene panel canonical junction qPCR assay, Target C CJ mRNA decrease; format: cell-based; conditions: Homo sapiens, canonical junction qPCR, read-out: Target C IC50 (decrease in CJ mRNA levels)
Method in brief: (§1)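 A673 or K562 cells were treated with compound, and lysates underwent cDNA synthesis and qPCR with a CY5 5′-nuclease probe or primer spanning the canonical exon junction. ΔCt versus GAPDH, GUSB or PPIA was normalized to DMSO (2^(−ΔΔCt)), converted to percentage response and fitted four-parameter logistic for IC50.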

SMN2 mRNA = assay: Gene panel canonical junction qPCR assay, SMN2 CJ mRNA decrease; format: cell-based, human; conditions: Homo sapiens, canonical junction qPCR, read-out: SMN2 IC50 (decrease in CJ mRNA levels)
Method in brief: as §1

MYB mRNA = assay: Gene panel canonical junction qPCR assay, MYB CJ mRNA decrease; format: cell-based, human; conditions: Homo sapiens, canonical junction qPCR, read-out: MYB IC50 (decrease in CJ mRNA levels)
Method in brief: as §1

| IC50 (HTT mRNA) | IC50 (Target C mRNA) | IC50 (SMN2 mRNA) | IC50 (MYB mRNA) | SMILES | AC50 (HTT mRNA) |
| --- | --- | --- | --- | --- | --- |
| 100 to 1000 nM | 1000 to 10000 nM | < 100 nM | < 100 nM | CCOc1cnc2c(N3C[C@@H](C)N[C@@H](C)C3)ccc(C(=O)Nc3cc(F)c4nc(C)cn4c3)c2n1 [Compound 296] | 100 to 1000 nM |
| > 10000 nM | > 10000 nM | < 100 nM | 100 to 1000 nM | Cc1cn2cc(NC(=O)c3ccc(N4CCNCC4)c4ccnnc34)ncc2n1 [Compound 120] | > 10000 nM |
| 1000 to 10000 nM | > 10000 nM | < 100 nM | 100 to 1000 nM | Cc1cn2cc(NC(=O)c3ccc([C@H]4CCNC4)c4nccnc34)cc(F)c2n1 [Compound 246] | 1000 to 10000 nM |
| 100 to 1000 nM | 1000 to 10000 nM | < 100 nM | < 100 nM | COc1nc(NC(=O)c2ccc(N3C[C@@H](C)N[C@@H](C)C3)c3nccnc23)cn2cc(C)nc12 [Compound 277] | 1000 to 10000 nM |
| 100 to 1000 nM | 1000 to 10000 nM | < 100 nM | 100 to 1000 nM | CCN1CCN(c2ccc(C(=O)Nc3cc(F)c4nc(C)cn4c3)c3nccnc23)CC12CC2 [Compound 365] | 1000 to 10000 nM |
| 1000 to 10000 nM | 1000 to 10000 nM | < 100 nM | < 100 nM | CN[C@H]1CCN(c2ccc(C(=O)Nc3cc(F)c4nc(C)cn4c3)c3nnccc23)C1 [Compound 239, (S)—N-(8-fluoro-2-methylimidazo[1,2-a]pyridin-6-yl)-5-(3-(methylamino)pyrrolidin-1-yl)cinnoline-8-carboxamide] | 1000 to 10000 nM |
| > 10000 nM | > 10000 nM | 100 to 1000 nM | 1000 to 10000 nM | C[C@@H]1CN(c2ccc(C(=O)Nc3cc(F)c4ncccc4c3)c3nccnc23)C[C@H](C)N1 [Compound 344] | > 10000 nM |
| 1000 to 10000 nM | 1000 to 10000 nM | < 100 nM | 100 to 1000 nM | Cc1cn2cc(NC(=O)c3ccc(N4C[C@@H](C)N[C@@H](C)C4)c4cccnc34)cc(F)c2n1 [Compound 340] | 1000 to 10000 nM |
| 1000 to 10000 nM | 1000 to 10000 nM | 100 to 1000 nM | 1000 to 10000 nM | Cc1cn2nc(NC(=O)c3ccc(C4CCNCC4)c4ccnnc34)cc(C)c2n1 [Compound 113] | 1000 to 10000 nM |
| 1000 to 10000 nM | 1000 to 10000 nM | 100 to 1000 nM | 1000 to 10000 nM | C[C@@H]1CN(c2ccc(C(=O)Nc3cc(F)c4cnccc4c3)c3nccnc23)C[C@H](C)N1 [Compound 343] | 1000 to 10000 nM |
| 1000 to 10000 nM | 1000 to 10000 nM | < 100 nM | 100 to 1000 nM | CNC1CCN(c2ccc(C(=O)Nc3cc(F)c4nc(C)cn4c3)c3nc(OCCOC)ccc23)C1 (stereo not drawn) [Compound 234] | 1000 to 10000 nM |
| 100 to 1000 nM | 100 to 1000 nM | < 100 nM | 100 to 1000 nM | COc1cc2c(N3C[C@@H](C)N[C@@H](C)C3)ccc(C(=O)Nc3cc(F)c4nc(C)cn4c3)c2nn1 [Compound 273, 5-[(3R,5S)-3,5-dimethylpiperazin-1-yl]-N-{8-fluoro-2-methylimidazo[1,2-a]pyridin-6-yl}-3-methoxycinnoline-8-carboxamide] | 100 to 1000 nM |
| > 10000 nM | > 10000 nM | > 10000 nM | > 10000 nM | Cn1cc2c(F)cc(NC(=O)c3ccc(N4CCNCC4)c4ccnnc34)cc2n1 [Compound 116] | > 10000 nM |
| 1000 to 10000 nM | 1000 to 10000 nM | < 100 nM | 100 to 1000 nM | COc1nc(NC(=O)c2ccc(N3C[C@@H](C)N[C@@H](C)C3)c3nccnc23)cc2cn(C)nc12 [Compound 352] | 1000 to 10000 nM |
| > 10000 nM | 1000 to 10000 nM | < 100 nM | 100 to 1000 nM | Cc1cn2cc(NC(=O)c3ccc(N4C[C@@H](C5CC5)N[C@@H](C)C4)c4nccnc34)cc(F)c2n1 [Compound 267, 8-((3R,5S)-3-cyclopropyl-5-methylpiperazin-1-yl)-N-(8-fluoro-2-methylimidazo[1,2-a]pyridin-6-yl)quinoxaline-5-carboxamide] | > 10000 nM |
| 1000 to 10000 nM | 1000 to 10000 nM | < 100 nM | 100 to 1000 nM | Cc1cn2cc(NC(=O)c3ccc(N4C[C@@H](C)N[C@@H](C)C4)c4ncc(OC5CC5)nc34)cc(F)c2n1 [Compound 351] | > 10000 nM |

| IC50 (HTT mRNA) | IC50 (Target C mRNA) | IC50 (SMN2 mRNA) | IC50 (MYB mRNA) | SMILES | AC50 (HTT mRNA) |
| --- | --- | --- | --- | --- | --- |
| 1000 to 10000 nM | 1000 to 10000 nM | < 100 nM | 100 to 1000 nM | Cc1cn2cc(NC(=O)c3ccc(N4CCNC5(CCC5)C4)c4nccnc34)cc(F)c2n1 [Compound 363] | 1000 to 10000 nM |
| 100 to 1000 nM | 100 to 1000 nM | 100 to 1000 nM | 100 to 1000 nM | Cc1cn2nc(NC(=O)c3ccc(N4C[C@@H](C)N[C@@H](C)C4)c4nccnc34)cc2c(C)n1 [Compound 354] | 100 to 1000 nM |
| > 10000 nM | > 10000 nM | > 10000 nM | > 10000 nM | Cc1cn2cc(NC(=O)c3ccc(N4C[C@@H](C)N[C@@H](C)C4)c4ncccc34)cc(F)c2n1 [Compound 358] | > 10000 nM |
| > 10000 nM | > 10000 nM | < 100 nM | 100 to 1000 nM | Cc1cn2cc(NC(=O)c3ccc(N4CCN[C@@H](C5CC5)C4)c4nccnc34)cc(F)c2n1 [Compound 252, 8-[(3S)-3-cyclopropylpiperazin-1-yl]-N-{8-fluoro-2-methylimidazo[1,2-a]pyridin-6-yl}quinoxaline-5-carboxamide] | > 10000 nM |
| 1000 to 10000 nM | 1000 to 10000 nM | < 100 nM | 100 to 1000 nM | Cc1cn2cc(NC(=O)c3ccc(N4CCNCC4)c4nncnc34)cc(F)c2n1 [Compound 345] | 1000 to 10000 nM |
| 100 to 1000 nM | 100 to 1000 nM | < 100 nM | < 100 nM | COc1cnc2c(N3CC[C@@H](N(C)C)C3)ccc(C(=O)Nc3cc(F)c4nc(C)cn4c3)c2n1 [Compound 244, 8-[(3R)-3-(dimethylamino)pyrrolidin-1-yl]-N-{8-fluoro-2-methylimidazo[1,2-a]pyridin-6-yl}-3-methoxyquinoxaline-5-carboxamide] | 100 to 1000 nM |
| > 10000 nM | > 10000 nM | 100 to 1000 nM | > 10000 nM | COc1nc2c(F)cc(NC(=O)c3ccc(N4C[C@@H](C)N[C@@H](C)C4)c4nccnc34)cc2o1 [Compound 342] | > 10000 nM |
| > 10000 nM | > 10000 nM | > 10000 nM | > 10000 nM | Cc1cn2cc(NC(=O)c3ccc(N4C[C@@H](C)N[C@@H](C)C4)c4ncc(O)nc34)cc(F)c2n1 [Compound 275] | > 10000 nM |
| > 10000 nM | > 10000 nM | 1000 to 10000 nM | 1000 to 10000 nM | Cc1cn2cc(NC(=O)c3ccc(N4C[C@@H](C)N[C@@H](C)C4)c4ncc(Cl)nc34)cc(F)c2n1 [Compound 281] | > 10000 nM |
| > 10000 nM | > 10000 nM | < 100 nM | 100 to 1000 nM | Cc1cn2cc(NC(=O)c3ccc(N4CCN[C@@H](C(C)C)C4)c4nccnc34)cc(F)c2n1 [Compound 250, N-{8-fluoro-2-methylimidazo[1,2-a]pyridin-6-yl}-8-[(3S)-3-isopropylpiperazin-1-yl]quinoxaline-5-carboxamide] | > 10000 nM |
| 1000 to 10000 nM | 1000 to 10000 nM | < 100 nM | < 100 nM | Cc1cn2cc(NC(=O)c3ccc(N4C[C@@H](C)N[C@@H](C)C4)c4nccnc34)nc(C)c2n1 [Compound 288] | 1000 to 10000 nM |
| 100 to 1000 nM | 100 to 1000 nM | < 100 nM | 100 to 1000 nM | Cc1nc2c(F)cc(NC(=O)c3ccc(N4CCNCC4)c4ccnnc34)cc2s1 [Compound 118] | 100 to 1000 nM |
| > 10000 nM | > 10000 nM | < 100 nM | 100 to 1000 nM | Cc1cn2cc(NC(=O)c3ccc(N4C[C@@H](C)N[C@@H](C)C4)c4nccnc34)nc2c(C)n1 [Compound 359] | > 10000 nM |
| > 10000 nM | > 10000 nM | < 100 nM | 100 to 1000 nM | COc1nc(NC(=O)c2ccc(N3C[C@@H](C)N[C@@H](C)C3)c3nccnc23)cc2oc(C)nc12 [Compound 298] | > 10000 nM |
| 100 to 1000 nM | 100 to 1000 nM | < 100 nM | < 100 nM | COc1ncc2c(N3C[C@@H](C)N[C@@H](C)C3)ccc(C(=O)Nc3cc(F)c4nc(C)cn4c3)c2n1 [Compound 300] | 100 to 1000 nM |
| > 10000 nM | > 10000 nM | < 100 nM | 100 to 1000 nM | Cc1c(O)c(NC(=O)c2ccc(N3C[C@@H](C)N[C@@H](C)C3)c3nccnc23)cc2cn(C)nc12 [Compound 310] | > 10000 nM |

| SMILES | IC50 (HTT mRNA) | IC50 (Target C mRNA) | IC50 (SMN2 mRNA) | IC50 (MYB mRNA) | AC50 (HTT mRNA) |
| --- | --- | --- | --- | --- | --- |
| Cc1cn2cc(NC(=O)c3ccc(N4C5CNCC54)c4nccnc34)cc(F)c2n1 (stereo not drawn) [Compound 262, 8-{3,6-diazabicyclo[3.1.0]hexan-6-yl}-N-{8-fluoro-2-methylimidazo[1,2-a]pyridin-6-yl}quinoxaline-5-carboxamide] | 100 to 1000 nM | 100 to 1000 nM | < 100 nM | 100 to 1000 nM | 100 to 1000 nM |
